Experiments:
[1] = In vivo stability of iodinated HLE inhibitors (thyroid uptake); parameters: species or system male Wistar rats; conditions: i.v. injection
Description: The in vivo stability of radioiodinated HLE inhibitors was monitored by determination of the percentage uptake in the thyroid as a function of time after administration. Thus radioiodinated compounds and ^123I free iodide were injected into male Wistar rats. The percentage of injected dose distributing to the thyroid was calculated by dissection at 4 and 24 hours post injection and counting.

[2] = target: T1, HLE (human leucocyte elastase) (Homo sapiens, UniProt P08246); test: Measurement of HLE inhibition potency (kinact/Ki); assay type: biochemical; parameters: Potency (M/sec), kinact/Ki: unit not given here; conditions: for kinact/Ki (human elastase): as listed in Table 24 beside the radiolabelled compounds
T1 sequence (P08246 30-267): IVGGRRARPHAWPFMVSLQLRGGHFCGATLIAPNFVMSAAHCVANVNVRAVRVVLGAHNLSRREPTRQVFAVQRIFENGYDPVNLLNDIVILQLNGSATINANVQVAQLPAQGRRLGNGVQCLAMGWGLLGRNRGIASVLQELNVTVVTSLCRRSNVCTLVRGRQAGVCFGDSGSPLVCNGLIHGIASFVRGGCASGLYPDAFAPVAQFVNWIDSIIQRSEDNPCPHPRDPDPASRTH
Description: Inhibitor potency against HLE is described by the parameter kinact/Ki as previously reported [Knight et al., Biochem., 8160-8170, (1992)]. Lyophilised enzyme was reconstituted with TrisHCl buffer, 100 mM, 0.5M NaCl at 0.05 units/ml (approximately nanomolar concentration) in a final reaction volume of 1 ml to which was added methoxysucc-ala-ala-pro-val-pNA substrate (1 mM) and the elastase inhibitor dissolved in DMSO. The reaction was monitored by detecting the change of absorbance at 410 nm (hydrolysis of the substrate releasing p-nitroaniline) over a timescale of 25 minutes. Values of kinact/Ki were estimated according to the Knight et al method.

[3] = test system: mixed human red/white cells (granulocytes, monocytes + lymphocytes, erythrocytes); test: In vitro cell uptake in mixed human red/white cells; assay type: cell-based; conditions: radiolabelled compound
Description: The radioactive compound was also incubated with an isolated leucocyte preparation to which an erythrocyte fraction had been added back. The packed erythrocytes obtained after blood sedimentation were washed twice with HBSS and then resuspended in their original blood volume with HBSS. Leucocytes obtained from 30 ml blood were resuspended in 0.5 ml erythrocyte suspension and 0.5 ml CFP. The cell suspension was then incubated with compound as above. Analysis of the distribution of activity in the cell pellet in the presence of red blood cells was carried out using Ficoll-Hypaque discontinuous density gradients (densities 1.04, 1.077 and 1.119 g/ml Histopaque steps).

[4] = test system: E. coli infected rats (experimental abscess); test: In vivo biodistribution of ex vivo labelled human leucocytes in E. coli infected rats; parameters: species or system male Wistar rats; conditions: ex vivo labelled human leucocytes injected i.v.
Description: (§1) The model: into the right gracilis (thigh) muscle of male Wistar rats (250-325 g) were injected 1 ml/kg of an E. coli suspension containing >> 5×10^8/ml organisms.
(§2) Validation: the model was validated for use in the development of diagnostic imaging agents of infection/inflammation by the intravenous injection of ^99mTc-HMPAO ex-vivo labelled human wbc or ^67Ga-citrate when the abscesses were 24 hours old. Animals were dissected between 4 and 24 hours after injection. ^99mTc-labelled red blood cells were used as a negative control.
Screening of Ex vivo labelled human leucocytes in E. coli infected rats: A mixed population of human leucocytes was incubated with elastase inhibitor for 30 minutes at 37° C. The cells were then spun down and resuspended in a known volume of rat plasma for intravenous injection into rats bearing a 24 hour old abscess. Animals were dissected at 4 and 24 hours post injection.

[5] = test system: E. coli infected rats (experimental abscess); test: In vivo biodistribution in rats bearing experimental abscesses, direct intravenous injection; parameters: species or system male Wistar rats; conditions: for Relative conc. In infected area / Infected/normal / Infected/blood: directly injected i.v.; for Relative conc. In infected area: % injected dose in a % body weight; for Infected/normal: ratio of % id/g infected area to contralateral thigh; for Infected/blood: ratio of %/g infected area to blood
Description: as §1, §2
The animals were sacrificed at either 4 or 24 hours post injection and relevant tissues dissected.

[6] = test system: isolated human white cells (granulocytes; monocytes + lymphocytes); test: In vitro cell uptake in isolated human white cells; assay type: cell-based; conditions: for selectivity for granulocytes over a mixture of monocytes/lymphocytes: approximately equivalent numbers of monocytes/lymphocytes and granulocytes present; for % uptake in Gran. (granulocytes), WHITE CELLS / % uptake in Mon. (monocytes + lymphocytes), WHITE CELLS: isolated human white cells, 30 minutes at 37° C., radiolabelled compound
Description: Fresh blood (30-120 ml) was anticoagulated with 1.5% ACD solution and sedimented by addition of 2 ml Hespan per 10 ml blood for 90 minutes at room temperature. The leucocyte rich platelet rich plasma supernatant was removed and centrifuged at 150 g for 5 minutes, yielding a leucocyte rich pellet and platelet rich plasma (PRP). The PRP was centrifuged at 4000 g to pellet the platelets leaving a cell free plasma (CFP). The leucocyte pellet was resuspended in a 50:50 mixture of HBSS and CFP and incubated with the radioactive compound for 30 minutes at 37° C. Free radioactive material was then removed from the cells by addition of an excess of HBSS:CFP and centrifugation of the leucocytes at 150 g for 7 minutes. The supernatant and cell pellet were taken for radioactive counting for calculation of percentage cell uptake. The distribution of radioactivity within the cell pellet was assessed by separation of the cell types using Percoll density gradient centrifugation (38%, 55% and 73% Percoll in HBSS step gradients). The residual plasma and free activity was recovered from the top of the gradient, the mononuclear cells (lymphocytes and monocytes) from the interface between 38% and 55%, and the granulocytes were recovered from the interface between 55% and 73% Percoll.

[7] = test system: human whole blood (granulocytes, monocytes + lymphocytes, erythrocytes); test: In vitro cell uptake in human whole blood; assay type: cell-based; conditions: 37° C. for 1 hour, radiolabelled compound
Description: The radioactive compound was added to 1 ml whole blood anticoagulated with ACD and incubated at 37° C. for 1 hour. The blood was diluted with HBSS and the cellular component separated by centrifugation. Distribution of activity within the cellular pellet was assessed by separation of cell fractions on Ficoll-Hypaque gradients as above.

[8] = measured for non-radioactive iodine-labelled compounds and unlabelled chelate conjugates

| % dose in Thyroid ([1]; 4 hours) | % dose in Thyroid ([1]; 24 hours) | kinact/Ki (human elastase) [2] | SMILES | % uptake in Eryth. (erythrocytes), WHITE AND RED CELLS [3] | % uptake in Gran. (granulocytes), WHITE AND RED CELLS [3] | % uptake in Mon. (monocytes + lymphocytes), WHITE AND RED CELLS [3] | Relative conc. In infected area ([5]; 4 hrs post injection) | Infected/normal ([5]; 4 hrs post injection) | Infected/blood ([5]; 4 hrs post injection) | Relative conc. In infected area ([5]; 24 hrs post injection) | Infected/normal ([5]; 24 hrs post injection) | Infected/blood ([5]; 24 hrs post injection) | selectivity for granulocytes over a mixture of monocytes/lymphocytes [6] | % uptake in Gran. (granulocytes), WHITE CELLS [6] | % uptake in Mon. (monocytes + lymphocytes), WHITE CELLS [6] | other results |
| --- | --- | --- | --- | --- | --- | --- | --- | --- | --- | --- | --- | --- | --- | --- | --- | --- |
|  |  | 650000 | CCC[C@@H](NC(=O)N1C(=O)C(CC)(CC)[C@@H]1Oc1cccnc1)c1ccc(I)cc1 [Compound 28, 4S-(Pyridyl-3-oxy)-1-[(R-α-n-propyl)-(4-iodo)benzylaminocarbonyl]-3,3-diethyl-2-azetidinone] | 17.5% | 41.9% | 14.9% | 0.22 | 1.3 | 1.1 | 0.12 | 1.2 | 1.2 | some degree of selectivity for granulocytes | 67.4% | 14.8% | Potency (1/(M·s)), kinact/Ki [2, 8]: 650000 M⁻¹ s⁻¹; Infected/blood ([4]; 4 hrs post injection): 0.9; Infected/normal ([4]; 4 hrs post injection): 1.5; Relative conc. In infected area ([4]; 4 hrs post injection): 0.45; Infected/blood ([4]; 24 hrs post injection): 0.9; Infected/normal ([4]; 24 hrs post injection): 1.2; Relative conc. In infected area ([4]; 24 hrs post injection): 0.16 |
| 0.1 % dose | 0.3 % dose | 36000 | CCC1(CC)C(=O)N(C(=O)NCc2ccc(I)cc2)C1Oc1ccc(C(=O)N2CCN(C)CC2)cc1 (single isomer, unassigned) [Compound 4a] | 8.4% | 53.2% | 14.6% | 0.52 | 1.0 | 0.62 | 0.28 | 1.6 | 0.53 | some degree of selectivity for granulocytes | 68.6% | 14.3% | Potency (M/sec), kinact/Ki [2, 8]: 63,000; uptake in the infected region compared with the ^99mTc-rbc control ([5]; ^123I-labelled, rat model of inflammation/infection): significantly better uptake in the infected region |
| 0.3 % dose | 2.4 % dose |  | CCC1(CC)C(=O)N(C(=O)NCCc2ccc(O)c(I)c2)C1S(=O)(=O)CCOC (stereo not drawn) [Compound 16, 4-[2-Methoxyethylsulfonyl]-1-[(4-hydroxy)(3-iodo)phenylethylaminocarbonyl]-3,3-diethyl-2-azetidinone] | 0.6% | 0.3% | 0.6% |  |  |  |  |  |  | some degree of selectivity for granulocytes | 0.55% | 0.0% | kinact/KI ([2]; measured for non-radioactive iodine-labelled compounds and unlabelled chelate conjugates, read-out: Potency (M/sec), kinact/Ki): 2700 M⁻¹ s⁻¹; % uptake in Eryth. (erythrocytes), WHOLE BLOOD [7]: 0.2%; % uptake in Gran. (granulocytes), WHOLE BLOOD [7]: 0.2%; % uptake in Mon. (monocytes + lymphocytes), WHOLE BLOOD [7]: 0.6% |

| SMILES | % dose in Thyroid ([1]; 4 hours) | % dose in Thyroid ([1]; 24 hours) | kinact/Ki (human elastase) [2] | % uptake in Eryth. (erythrocytes), WHITE AND RED CELLS [3] | % uptake in Gran. (granulocytes), WHITE AND RED CELLS [3] | % uptake in Mon. (monocytes + lymphocytes), WHITE AND RED CELLS [3] | Relative conc. In infected area ([5]; 4 hrs post injection) | Infected/normal ([5]; 4 hrs post injection) | Infected/blood ([5]; 4 hrs post injection) | Relative conc. In infected area ([5]; 24 hrs post injection) | Infected/normal ([5]; 24 hrs post injection) | Infected/blood ([5]; 24 hrs post injection) | selectivity for granulocytes over a mixture of monocytes/lymphocytes [6] | % uptake in Gran. (granulocytes), WHITE CELLS [6] | % uptake in Mon. (monocytes + lymphocytes), WHITE CELLS [6] | other results |
| --- | --- | --- | --- | --- | --- | --- | --- | --- | --- | --- | --- | --- | --- | --- | --- | --- |
| [123IH] [[^123I]-iodide, reference compound] | 6.8 % dose | 22.2 % dose |  |  |  |  |  |  |  |  |  |  |  |  |  |  |

Source: patent publication US6375926B1, “Labelled elastase inhibitors” (Amersham International PLC, priority 1996, dated 2002)
